According to the NIST ThermoML archive (doi:10.1021/je049633+):

Test: xn = mol fraction of the nth substance listed
Settings: Gas, isochoric method

[N-]=[N+]=O [nitrous oxide] + O=C=O
Settings | molar volume [m3/mol]
238.1 K, 1004.5 kPa, x2 = 0.5959 | 0.001705
238.1 K, 1194.6 kPa, x2 = 0.6953 | 0.001286
243.07 K, 1032.4 kPa, x2 = 0.5959 | 0.001705
243.09 K, 1317 kPa, x2 = 0.6953 | 0.001286
248.05 K, 1059.7 kPa, x2 = 0.5959 | 0.001706
248.11 K, 1355.8 kPa, x2 = 0.6953 | 0.001286
253.04 K, 1086.8 kPa, x2 = 0.5959 | 0.001706
253.1 K, 1393.5 kPa, x2 = 0.6953 | 0.001287
258.09 K, 2081.3 kPa, x2 = 0.1499 | 0.000805
258.11 K, 1431.2 kPa, x2 = 0.6953 | 0.001287
263.02 K, 2626.7 kPa, x2 = 0.9071 | 0.000638
263.06 K, 2148.3 kPa, x2 = 0.1499 | 0.000805
263.08 K, 1140.7 kPa, x2 = 0.5959 | 0.001707
263.08 K, 1469 kPa, x2 = 0.6953 | 0.001287
263.09 K, 2245.7 kPa, x2 = 0.2607 | 0.000759
263.1 K, 2436.3 kPa, x2 = 0.4754 | 0.000668
268.02 K, 2719.9 kPa, x2 = 0.9071 | 0.000635
268.03 K, 2212.6 kPa, x2 = 0.1499 | 0.000806
268.04 K, 1168.2 kPa, x2 = 0.5959 | 0.001707
268.05 K, 1505.5 kPa, x2 = 0.6953 | 0.001287
268.08 K, 2515.8 kPa, x2 = 0.4754 | 0.000669
268.08 K, 2813.7 kPa, x2 = 0.3585 | 0.000579
268.08 K, 2907.1 kPa, x2 = 0.7478 | 0.000559
272.93 K, 1194.4 kPa, x2 = 0.5959 | 0.001708
272.93 K, 3330.4 kPa, x2 = 0.6929 | 0.000486
272.94 K, 1541.4 kPa, x2 = 0.6953 | 0.001288
272.95 K, 2909.1 kPa, x2 = 0.3585 | 0.00058
272.98 K, 3090.5 kPa, x2 = 0.0902 | 0.000512
273.04 K, 2808.9 kPa, x2 = 0.9071 | 0.000636
273.05 K, 2384.1 kPa, x2 = 0.2607 | 0.000759
273.06 K, 3007.9 kPa, x2 = 0.7478 | 0.000559
273.07 K, 2593.6 kPa, x2 = 0.4754 | 0.000669
273.12 K, 2276.8 kPa, x2 = 0.1499 | 0.000806
277.82 K, 3196.6 kPa, x2 = 0.0902 | 0.000513
277.86 K, 3791 kPa, x2 = 0.6099 | 0.000401
277.87 K, 3104 kPa, x2 = 0.7478 | 0.000559
277.94 K, 3453.5 kPa, x2 = 0.6929 | 0.000486
282.66 K, 3300.1 kPa, x2 = 0.0902 | 0.000513
282.82 K, 2743.7 kPa, x2 = 0.4754 | 0.000669
282.82 K, 3939.5 kPa, x2 = 0.6099 | 0.000401
282.83 K, 1245.4 kPa, x2 = 0.5959 | 0.001708
282.83 K, 1612.9 kPa, x2 = 0.6953 | 0.001288
282.83 K, 4250.2 kPa, x2 = 0.8378 | 0.00036
282.84 K, 3094.9 kPa, x2 = 0.3585 | 0.00058
282.9 K, 2980 kPa, x2 = 0.9071 | 0.000636
283.01 K, 2401.3 kPa, x2 = 0.1499 | 0.000806
283.01 K, 2518.2 kPa, x2 = 0.2607 | 0.000759
283.01 K, 3203.9 kPa, x2 = 0.7478 | 0.00056
283.01 K, 3574.6 kPa, x2 = 0.6929 | 0.000486
292.79 K, 3511.2 kPa, x2 = 0.0902 | 0.000513
292.89 K, 4229.6 kPa, x2 = 0.6099 | 0.000401
292.97 K, 1685.2 kPa, x2 = 0.6953 | 0.001289
292.97 K, 2524.4 kPa, x2 = 0.1499 | 0.000806
292.98 K, 1297.8 kPa, x2 = 0.5959 | 0.001709
292.98 K, 3279.6 kPa, x2 = 0.3585 | 0.00058
292.99 K, 3397 kPa, x2 = 0.7478 | 0.00056
292.99 K, 4597 kPa, x2 = 0.8378 | 0.00036
293.06 K, 2897.6 kPa, x2 = 0.4754 | 0.000669
293.06 K, 3153.2 kPa, x2 = 0.9071 | 0.000636
293.06 K, 3809.7 kPa, x2 = 0.6929 | 0.000486
293.11 K, 2651.8 kPa, x2 = 0.2607 | 0.00076
297.92 K, 4370.8 kPa, x2 = 0.6099 | 0.000401
298.04 K, 1323.7 kPa, x2 = 0.5959 | 0.001709
298.04 K, 2970.8 kPa, x2 = 0.4754 | 0.000669
298.04 K, 3235.8 kPa, x2 = 0.9071 | 0.000636
298.04 K, 3923.4 kPa, x2 = 0.6929 | 0.000486
298.05 K, 3617.5 kPa, x2 = 0.0902 | 0.000513
298.06 K, 3490.8 kPa, x2 = 0.7478 | 0.00056
299.02 K, 4795.1 kPa, x2 = 0.8378 | 0.00036
302.04 K, 2647.7 kPa, x2 = 0.1499 | 0.000807
303.02 K, 3458.7 kPa, x2 = 0.3585 | 0.00058
303.13 K, 2781.5 kPa, x2 = 0.2607 | 0.00076
307.87 K, 4646.1 kPa, x2 = 0.6099 | 0.000401
307.97 K, 3546.3 kPa, x2 = 0.3585 | 0.00058
308 K, 1375.9 kPa, x2 = 0.5959 | 0.00171
308 K, 1790.6 kPa, x2 = 0.6953 | 0.00129
308 K, 4148.1 kPa, x2 = 0.6929 | 0.000486
308.01 K, 3399.4 kPa, x2 = 0.9071 | 0.000637
308.02 K, 3818.3 kPa, x2 = 0.0902 | 0.000513
308.03 K, 3676.1 kPa, x2 = 0.7478 | 0.00056
308.07 K, 2845 kPa, x2 = 0.2607 | 0.00076
308.09 K, 5087.6 kPa, x2 = 0.8378 | 0.00036
308.13 K, 3117.6 kPa, x2 = 0.4754 | 0.00067
312.22 K, 2766.9 kPa, x2 = 0.1499 | 0.000807
317.84 K, 4915.4 kPa, x2 = 0.6099 | 0.000401
318.01 K, 2971.6 kPa, x2 = 0.2607 | 0.000761
318.02 K, 5401.8 kPa, x2 = 0.8378 | 0.000361
318.04 K, 3722.1 kPa, x2 = 0.3585 | 0.000581
318.05 K, 4013.5 kPa, x2 = 0.0902 | 0.000513
318.11 K, 1427.6 kPa, x2 = 0.5959 | 0.001711
318.11 K, 3261.7 kPa, x2 = 0.4754 | 0.00067
318.12 K, 1861.3 kPa, x2 = 0.6953 | 0.00129
318.12 K, 3563 kPa, x2 = 0.9071 | 0.000637
318.12 K, 4371.8 kPa, x2 = 0.6929 | 0.000486
318.13 K, 3860.5 kPa, x2 = 0.7478 | 0.00056
322.91 K, 5554.6 kPa, x2 = 0.8378 | 0.000361
323.11 K, 2885.7 kPa, x2 = 0.1499 | 0.000807
323.12 K, 5055.4 kPa, x2 = 0.6099 | 0.000401
327.94 K, 3893.1 kPa, x2 = 0.3585 | 0.000581
327.98 K, 3097.5 kPa, x2 = 0.2607 | 0.000761
328 K, 5712 kPa, x2 = 0.8378 | 0.000361
328.09 K, 1478.4 kPa, x2 = 0.5959 | 0.001712
328.09 K, 3404 kPa, x2 = 0.4754 | 0.00067
328.1 K, 1930.7 kPa, x2 = 0.6953 | 0.001291
328.1 K, 3722.5 kPa, x2 = 0.9071 | 0.000637
328.1 K, 4040.6 kPa, x2 = 0.7478 | 0.000561
328.1 K, 4589.4 kPa, x2 = 0.6929 | 0.000487
328.11 K, 4212.5 kPa, x2 = 0.0902 | 0.000514
328.11 K, 5188.2 kPa, x2 = 0.6099 | 0.000402
333.09 K, 3003.3 kPa, x2 = 0.1499 | 0.000808
333.1 K, 5868.1 kPa, x2 = 0.8378 | 0.000361
338.03 K, 4402.1 kPa, x2 = 0.0902 | 0.000514
338.07 K, 1529 kPa, x2 = 0.5959 | 0.001712
338.07 K, 4218.4 kPa, x2 = 0.7478 | 0.000561
338.07 K, 4804.3 kPa, x2 = 0.6929 | 0.000487
338.08 K, 1999.6 kPa, x2 = 0.6953 | 0.001291
338.08 K, 3880.7 kPa, x2 = 0.9071 | 0.000637
338.08 K, 4065.8 kPa, x2 = 0.3585 | 0.000581
338.09 K, 3223.8 kPa, x2 = 0.2607 | 0.000761
338.09 K, 5449.4 kPa, x2 = 0.6099 | 0.000402
338.11 K, 3545.6 kPa, x2 = 0.4754 | 0.000671
343.08 K, 3119.8 kPa, x2 = 0.1499 | 0.000808
343.08 K, 5578.9 kPa, x2 = 0.6099 | 0.000402
348.02 K, 4592.8 kPa, x2 = 0.0902 | 0.000514
348.05 K, 3346.9 kPa, x2 = 0.2607 | 0.000762
348.05 K, 3684.7 kPa, x2 = 0.4754 | 0.000671
348.06 K, 1579.5 kPa, x2 = 0.5959 | 0.001713
348.06 K, 2068.1 kPa, x2 = 0.6953 | 0.001292
348.06 K, 4036.9 kPa, x2 = 0.9071 | 0.000638
348.06 K, 4394.9 kPa, x2 = 0.7478 | 0.000561
348.06 K, 5017.1 kPa, x2 = 0.6929 | 0.000487
348.07 K, 4234.7 kPa, x2 = 0.3585 | 0.000582
353.04 K, 3235.1 kPa, x2 = 0.1499 | 0.000809
357.91 K, 4567 kPa, x2 = 0.7478 | 0.000561
357.95 K, 2135.6 kPa, x2 = 0.6953 | 0.001293
357.99 K, 1629.5 kPa, x2 = 0.5959 | 0.001714
357.99 K, 5226.8 kPa, x2 = 0.6929 | 0.000487
358.02 K, 3469.7 kPa, x2 = 0.2607 | 0.000762
358.02 K, 3823.2 kPa, x2 = 0.4754 | 0.000671
358.03 K, 4191.9 kPa, x2 = 0.9071 | 0.000638
358.04 K, 3292.6 kPa, x2 = 0.1499 | 0.000809
358.04 K, 4401.6 kPa, x2 = 0.3585 | 0.000582
